Several values for one entry are separate records, joined by “and”; a condition that tells them apart may be missing. Equal entries are not always repeated.
Experiment: Stability of resveratrol in ultrafiltration filtrates concentrated by reverse osmosis and held at pH 11
Assay type: physicochemical
Details: held at pH 11 for 3 to 7 days at 5° C. to 8° C., at production vs 7 days after
Experimental: It is advantageous for process intermediate materials to have a high degree of stability, so that they can be processed over time without the need for immediate processing on equipment with high capacity. The various filtrates from the ultrafiltration tests were concentrated by reverse osmosis and held at pH 11 for 3 to 7 days at 5° C. to 8° C. to evaluate their stability. The product decomposition is a comparison between the composition at the time of production and that measured 7 days after production. The stability improved monotonically as the molecular weight cutoff of the ultrafilter was decreased from 100 kDa to 25 kDa to 5 kDa. 11%, 7%, and 5% of the resveratrol was decomposed in the respective tests.

Oc1ccc(/C=C/c2cc(O)cc(O)c2)cc1 [resveratrol, 3,5,4′-trihydroxy-trans-stilbene]
Product Decomposition (filtrate from GR40PP 100 kDa ultrafilter, broth EFSC4687): 11.5% | Product Decomposition (filtrate from GR40PP 100 kDa ultrafilter, broth EFSC 21811): 11% and 10.7% | Product Decomposition (filtrate from GR60PP 25 kDa ultrafilter): 7% | Product Decomposition (filtrate from GR90PP 5 kDa ultrafilter): 5%
